Values after ≈ are worked out from the molar mass of the structure shown. Structures can show the parent of a compound that is named as a salt.

Series [1] can be described thus: physchem. The settings on record: solid.
Series [2] can be described thus: Solubility in water, buffer or urine.
Series [3] can be described thus: Solid stability at elevated temperatures.
A short description of series [4]: Stability of aqueous solutions at room temperature (loss of activity).
Series [5] in a line: Blood level in mice after intramuscular injection (Example 7). The format is in vivo. The conditions noted are these: mouse, im, intramuscularly, 10 mg./kg. of body weight, at 15 minutes. The procedure:
The IR and NMR were consistent with the title product, but indicated about 20% impurities, primarily starting material. When this compound was administered intramuscularly by injection at a dose of 10 mg./kg. of body weight in mice, a blood level of […]. was obtained at 15 minutes.

Series [6] relates to Str. pyogenes. In words: M.I.C. by Tube Dilution in Nutrient Broth (Examples 1 and 2). The conditions noted are these: Streptococcus pyogenes; Str. pyogenes A9604 (10^-3); 45% Antibiotic Assay Broth + 50% Nutrient Broth + 5% serum. The class given is cell-based. The source says:
(§1) *45% Antibiotic Assay Broth + 50% Nutrient Broth + 5% serum
(§2) **Dilution of overnight broth culture

Series [7] relates to Str. pneumoniae. The description is as above. The class given is cell-based. The settings on record: Streptococcus pneumoniae; Str. pneumoniae A9585 (10^-3 dilution of overnight broth culture); 45% Antibiotic Assay Broth + 50% Nutrient Broth + 5% serum.
Description: as §1, §2

Series [8] has as its system S. aureus. The series is described as above. The format is cell-based. The settings on record: Staphylococcus aureus. The text has this: (§3) | **Dilution of overnight broth culture
Series [9] has as its system Pr. mirabilis. Described as above. The format is cell-based. The settings on record: Proteus mirabilis; Pr. mirabilis A9900 (10^-4).
Description: as §3

The subject of series [10] is Pr. morganii. The description is as above. The format is cell-based. The conditions noted are these: Morganella morganii; Pr. morganii A15153 (10^-4).
Description: as §3

Series [11] has as its system K. pneumoniae. The description is as above. The class given is cell-based. The settings on record: Klebsiella pneumoniae.
Description: as §3

In series [12] the test system is Ent. cloacae. The series is described as above. The class given is cell-based. The settings on record: Enterobacter cloacae.
Description: as §3

Series [13] has as its system Sal. enteritidis. The series is described as above. The format is cell-based. The conditions noted are these: Salmonella enterica; Sal. enteritidis A9531 (10 ^4).
Description: as §3

The test system of series [14] is Ps. aeruginosa. Described as above. The class given is cell-based. The settings on record: Pseudomonas aeruginosa; read-out: M.I.C.
Description: as §3

Series [15] has as its system E. coli. The series is described as above. The format is cell-based. The settings on record: Escherichia coli.
Description: as §3

The test system of series [16] is Ser. marcescens. The series is described as above. The conditions noted are these: Serratia marcescens; Ser. marcescens A20019 (10^-4). The format is cell-based.
Description: as §3

Series [17] concerns S. aureus. The experiment in a line: MIC by Tube Dilution Technique in Nutrient Broth (Example 9 table). The class given is cell-based. The conditions noted are these: Staphylococcus aureus. The source says: (§4) MIC (mcg./ml.) by Tube Dilution Technique in Nutrient Broth.
For series [18], the system named is S. enteritidis. The description is as above. The class given is cell-based. The conditions noted are these: Salmonella enterica; Se-1 S. enteritidis A9531.
Description: as §4

Series [19] concerns D. pneumoniae. Described as above. The settings on record: Streptococcus pneumoniae; Dp-4 D. pneumoniae A9585. The format is cell-based.
Description: as §4

The subject of series [20] is P. mirabilis. The series is described as above. The format is cell-based. The conditions noted are these: Proteus mirabilis; Pm-2 P. mirabilis A9900.
Description: as §4

For series [21], the system named is K. pneumoniae. The description is as above. The settings on record: Klebsiella pneumoniae. The format is cell-based.
Description: as §4

For series [22], the system named is P. aeruginosa. The series is described as above. The format is cell-based. The conditions noted are these: Pseudomonas aeruginosa; P. aeruginosa A9843.
Description: as §4

For series [23], the system named is S. marcescens. Described as above. The class given is cell-based. The conditions noted are these: Serratia marcescens; Sm-1 S. marcescens A20019.
Description: as §4

The test system of series [24] is E. cloacae. The series is described as above. The class given is cell-based. The conditions noted are these: Enterobacter cloacae; El-1 E. cloacae A9656.
Description: as §4

Series [25] deals with P. morganii. The description is as above. The format is cell-based. The settings on record: Morganella morganii; Pg-8 P. morganii A15153.
Description: as §4

Series [26] has as its system S. pyogenes. Described as above. The conditions noted are these: Streptococcus pyogenes; Sp-3 S. pyogenes A9604. The class given is cell-based.
Description: as §4

Series [27] has as its system E. coli. Described as above. The conditions noted are these: Escherichia coli. The format is cell-based.
Description: as §4

Turning to `NCc1ccccc1CC(=O)N[C@@H]1C(=O)N2C(C(=O)O)=C(CSc3nnnn3CC(=O)O)CS[C@H]12` [BL-S786: L-Lysine Salt], the degraded at 730 h in series [1] is less than 10%.

In the case of `Cn1nnnc1SCC1=C(C(=O)O)N2C(=O)[C@@H](NC(=O)Cc3ccccc3CN)[C@H]2SC1` [7-(o-aminomethylphenylacetamido)-3-(1-methyl-1,2,3,4-tetrazol-5-ylthiomethyl)-3-cephem-4-carboxylic acid], the “lowest pH able to dissolve 150 mg./ml.” value in [2] (room temperature) came to 10.3. The compound also showed a solubility in series [2] (solubility, in both buffered aqueous media and in dog urine at room temperature) of 1 to 3 mg/mL (≈ 2100 to 6310 µM).

Consider `NCc1ccccc1CC(=O)N[C@@H]1C(=O)N2C(C(=O)O)=C(CSc3nnnn3CC(=O)O)CS[C@H]12` [Example 3], for which the “relative stability of the solid at elevated temperatures” value in series [3] is given as “not as stable at elevated temperatures”. In series [2] (water, Solubility in water), this compound had a solubility greater than 500 mg/mL. In series [4] (125.0 mg./ml. at pH 7.0, room temperature, at least 24 hours), the “loss of activity in solution” value was “no significant loss”. Besides, in series [4] (room temperature at 250 mg./ml.), the “Stability in water (time stable)” value is listed as “at least 24 hours”.

The compound `NCc1ccccc1CC(=O)N[C@@H]1C(=O)N2C(C(=O)O)=C(CSc3nnnn3CCC(=O)O)CS[C@H]12` [Example 7, 7-(2-aminomethylphenylacetamido)-3-(1-carboxyethyltetrazol-5-ylthiomethyl)-3-cephem-4-carboxylic acid] returned a concentration at 0.25 h in [5] of 22300 µg/mL.

As to `NCC1=C(CC(=O)N[C@@H]2C(=O)N3C(C(=O)O)=C(CSc4nnnn4CC(=O)O)CS[C@H]23)CC=CC1` [Example 2, 7-(2-Aminomethyl-1,4-cyclohexadienylacetamido)-3-(1-carboxymethyltetrazol-5-ylthiomethyl)-3-cephem-4-carboxylic acid], the MIC in series [6] came to 0.13 mg/L; in series [7] it was 0.06 mg/L; in [8] (S. aureus BX1633 A9606 (10^-2)), 2.5 mg/L (≈ 4.79 µM); in [8] (S. aureus BX1633 A9606 (10^-3)), 1.3 mg/L (≈ 2.49 µM); in [8] (S. aureus Meth-Res A15097 (10^-3)) it was 4 mg/L (≈ 7.67 µM); in [8] (S. aureus Smith A9537 (10^-4)) it was 0.5 mg/L (≈ 0.959 µM). For the same compound, the MIC was greater than 0.5 mg/L in [8] (S. aureus-50% serum A9537 (10^-4)); 0.3 mg/L (≈ 0.575 µM) in series [9]; 8 mg/L (≈ 15.3 µM) in series [10]; 0.3 mg/L (≈ 0.575 µM) in [11] (K. pneumoniae A9977 (10^-4)); 2 mg/L (≈ 3.83 µM) in series [11] (K. pneumoniae A15130 (10^-4)); 0.3 mg/L (≈ 0.575 µM) in [12] (Ent. cloacae A9657 (10^-4)). Moreover, the MIC was 32 mg/L (≈ 61.4 µM) in [12] (Ent. cloacae A9659 (10^-4)); greater than 125 mg/L in [12] (Ent. cloacae A9656 (10^-4)); 0.16 mg/L (≈ 0.307 µM) in [13]; greater than 125 mg/L in [14]; 16 mg/L (≈ 30.7 µM) in series [15] (E. coli A9675 (10^-4)); 1.3 mg/L (≈ 2.49 µM) in series [15] (E. coli Juhl A15119 (10^-4)). Besides, in [16], the MIC is greater than 125 mg/L.

Consider `NCc1ccccc1CC(=O)N[C@@H]1C(=O)N2C(C(=O)O)=C(CSc3nnnn3CC(=O)O)CS[C@H]12` [Example 8, Monosodium BL-S786 Dihydrate], for which, in series [2] (water, Dihydrate), the Solubility in water is greater than 400 mg/mL. Also, the “Stability of 250,000 unit/ml. solution” value in series [4] (24 hours at room temperature) is listed as “No loss”.

Consider `Cn1nnnc1SCC1=C(C(=O)O)N2C(=O)[C@@H](NC(=O)[C@H](O)c3ccccc3)[C@H]2SC1` [Cefamandole], for which the MIC in series [17] (Sa-2 S. aureus +50% serum) came to 1.6 mg/L (≈ 3.46 µM); in [17] (Sa-2 S. aureus Smith A9537), 0.8 mg/L (≈ 1.73 µM); in [17] (Sa-11 S. aureus BX-1633 A9606), 1.6 mg/L (≈ 3.46 µM); in series [17] (Sa-44 S. aureus A15097), 3.1 mg/L (≈ 6.7 µM); in series [18], 0.4 mg/L (≈ 0.865 µM); in series [19], 0.08 mg/L (≈ 0.173 µM). Besides, the MIC was 0.8 mg/L (≈ 1.73 µM) in [20]; 0.8 mg/L (≈ 1.73 µM) in [21] (Kp-3 K. pneumoniae A9977); 6.3 mg/L (≈ 13.6 µM) in series [21] (Kp-4 K. pneumoniae A15130); greater than 100 mg/L in series [22]; greater than 100 mg/L in series [23]; 50 mg/L (≈ 108 µM) in [24]. Moreover, the MIC in [25] turned out to be 3.1 mg/L (≈ 6.7 µM); in series [26], 0.08 mg/L (≈ 0.173 µM); in series [27] (Ec-1 E. coli NIHJ), 1.6 mg/L (≈ 3.46 µM); in series [27] (Ec-3 E. coli Juhl A15119), 0.8 mg/L (≈ 1.73 µM); in series [27] (Ec-58 E. coli A9675) it was 3.1 mg/L (≈ 6.7 µM).

As for `CNCc1ccsc1CC(=O)N[C@@H]1C(=O)N2C(C(=O)O)=C(CSc3nnnn3CC(=O)O)CS[C@H]12` [Example 9, 7-(3-N-methylaminomethyl-2-thienylacetamido)-3-(1-carboxymethyltetrazol-5-ylthiomethyl)-3-cephem-4-carboxylic Acid], the MIC in [17] (Sa-2 S. aureus +50% serum) stood at 3.1 mg/L (≈ 5.74 µM); in series [17] (Sa-2 S. aureus Smith A9537), 3.1 mg/L (≈ 5.74 µM); in series [17] (Sa-11 S. aureus BX-1633 A9606) it was 6.3 mg/L (≈ 11.7 µM); in series [17] (Sa-44 S. aureus A15097), 12.5 mg/L (≈ 23.2 µM); in series [18] it was 0.2 mg/L (≈ 0.371 µM); in series [19], 0.08 mg/L (≈ 0.148 µM). For the same compound, the MIC in [20] is 0.4 mg/L (≈ 0.741 µM); in series [21] (Kp-3 K. pneumoniae A9977), 0.2 mg/L (≈ 0.371 µM); in series [21] (Kp-4 K. pneumoniae A15130), 1.6 mg/L (≈ 2.97 µM); in series [22], greater than 100 mg/L; in [23] it was greater than 100 mg/L; in series [24], 50 mg/L (≈ 92.7 µM). For the same compound, the MIC in series [25] came out at 12.5 mg/L (≈ 23.2 µM); in series [26], 0.08 mg/L (≈ 0.148 µM); in series [27] (Ec-1 E. coli NIHJ) it was 0.8 mg/L (≈ 1.48 µM); in series [27] (Ec-3 E. coli Juhl A15119), 0.8 mg/L (≈ 1.48 µM); in series [27] (Ec-58 E. coli A9675), 12.5 mg/L (≈ 23.2 µM).
